CC(C)c1ncc[nH]1
solubility (mole fraction)
Conditions	in 2-butanone	in acetone	in acetonitrile	in ethanol	in ethyl acetate	in isopropanol	in methanol	in n-propanol	in toluene
278.15 K	0.11	0.0906	0.0259	0.189	0.0519	0.0738	0.224	0.0999	0.0215
280.65 K	0.116	0.0946	0.0275	0.196	0.0556	0.0768	0.233	0.104	0.0225
283.15 K	0.121	0.0988	0.0291	0.203	0.0588	0.0801	0.242	0.109	0.0237
285.65 K	0.127	0.103	0.0308	0.21	0.0626	0.0825	0.252	0.114	0.0248
288.15 K	0.133	0.108	0.0325	0.216	0.066	0.0856	0.263	0.117	0.026
290.65 K	0.139	0.111	0.0343	0.226	0.0697	0.0883	0.274	0.121	0.0272
293.15 K	0.145	0.116	0.0361	0.235	0.0737	0.0927	0.285	0.126	0.0287
295.65 K	0.152	0.121	0.0379	0.243	0.0778	0.0965	0.297	0.133	0.0302
298.15 K	0.159	0.127	0.0401	0.253	0.0826	0.101	0.31	0.139	0.0318
300.65 K	0.167	0.133	0.0427	0.263	0.0883	0.105	0.322	0.146	0.0336
303.15 K	0.177	0.14	0.0453	0.273	0.0939	0.11	0.334	0.153	0.0355
305.65 K	0.185	0.146	0.0481	0.282	0.0994	0.115	0.348	0.159	0.0374
308.15 K	0.194	0.153	0.0509	0.294	0.105	0.121	0.361	0.166	0.0394
310.65 K	0.203	0.159	0.0538	0.304	0.112	0.126	0.376	0.173	0.0416
313.15 K	0.213	0.166	0.0568	0.315	0.118	0.132	0.39	0.18	0.0437
